pIC50: −log10 of the molar value. Calls of active or inactive are those of the source. No cut-off for these calls is given here.
Tests used:
[1] = biological target: Replicase polyprotein 1ab (Severe acute respiratory syndrome coronavirus 2) (UniProt P0DTD1); assay: Inhibition of SARS-CoV-2 MPro at 10 uM incubated for 5 mins by FRET assay
J774.1 [2] = assay: Anti-inflammatory activity against mouse J774A.1 macrophage assessed as reduction in LPS-induced LDH release incubated for 1 hr in presence of nigericin by LDH assay; format: functional, cell-based; conditions: J774.1, 1 h
J774.1 [3] = assay: Anti-inflammatory activity against mouse J774A.1 macrophage assessed as reduction in LPS-induced LDH release at 10 uM incubated for 1 hr in presence of nigericin by LDH assay; format: functional, cell-based
J774.1 [4] = assay: Anti-inflammatory activity against mouse J774A.1 macrophage assessed as reduction in LPS-induced IL-1beta maturation at 0.625 to 2.5 uM incubated for 1 hr in presence of nigericin by Western blot analysis; format: functional, cell-based; conditions: dose 0.625-2.5 µM
J774.1 [5] = assay: Anti-inflammatory activity against mouse J774A.1 macrophage assessed as reduction in LPS-induced pyroptosis cells at 0.625 to 2.5 uM incubated for 1 hr in presence of nigericin by PI/Hoechst 33342 staining based inverted fluorescence microscopic analysis; format: functional, cell-based; conditions: dose 0.625-2.5 µM, DDE = dose-dependent effect
J774.1 [6] = assay: Anti-inflammatory activity against mouse J774A.1 macrophage assessed as reduction in LPS-induced cleaved casp-1 expression at 0.625 to 2.5 uM incubated for 1 hr in presence of nigericin by Western blot analysis; format: functional, cell-based; conditions: dose 0.625-2.5 µM

Structure (SMILES)	inhibition [1]	pIC50 (J774.1 [2])	inhibition (J774.1 [3])	Activity (J774.1 [4])	Activity (J774.1 [5])	Activity (J774.1 [6])
CC1(C)Oc2ccc(/C=C3\OC(=O)C(c4cc5c(cc4O)OC(C)(C)C(O)C5)=C3O)cc2CC1O (stereo not given)	Active	–	–	–	–	–
CC(C)(O)C(O)Cc1cc(/C=C2\OC(=O)C(c3cc4c(cc3O)OC(C)(C)C(O)C4)=C2O)ccc1O (stereo not given)	Active	–	–	–	–	–
CC(C)=CCc1cc(C2=C(O)/C(=C/c3ccc4c(c3)C[C@H](C(C)(C)O)O4)OC2=O)c(O)cc1O	Active	5.31	Active	–	–	–
CC(C)=CCc1cc(/C=C2\OC(=O)C(c3ccc(O)cc3O)=C2O)ccc1O	Active	5.62	Active	–	–	–
CC(C)=CCc1cc(C2=C(O)/C(=C/c3ccc(O)c(CCC(C)(C)O)c3)OC2=O)c(O)cc1O	Active	5.51	Active	–	–	–
CC(C)=CCc1cc(/C=C2\OC(=O)C(c3cc(CC=C(C)C)c(O)cc3O)=C2O)ccc1O	Active	5.52	Active	–	–	–
CC(C)=CCc1cc(C2=C(O)/C(=C/c3ccc4c(c3)CC(O)C(C)(C)O4)OC2=O)c(O)cc1O (stereo not given)	Active	5.55	Active	–	–	–
CC(C)=CCc1cc(/C=C2\OC(=O)C(c3cc4c(cc3O)OC(C)(C)C(O)C4)=C2O)ccc1O (stereo not given)	Active	5.38	Active	–	–	–
CC(C)=CCc1cc(C2=C(O)/C(=C/c3ccc(O)c(CC(O)C(C)(C)O)c3)OC2=O)c(O)cc1O (stereo not given)	Active	5.13	Active	–	–	–
CC(C)=CCc1cc(/C=C2\OC(=O)C(c3cc4c(cc3O)OC(C)(C)CC4)=C2O)ccc1O	Active	6.10	Active	–	–	–
CC(C)=CCc1cc(/C=C2\OC(=O)C(c3cc(CCC(C)(C)O)c(O)cc3O)=C2O)ccc1O	Active	5.48	Active	–	–	–
CC(C)(O)C1Cc2cc(/C=C3\OC(=O)C(c4cc5c(cc4O)OC(C)(C)C(O)C5)=C3O)ccc2O1 (stereo not given)	Active	6.15	Active	Active	Dde	Active

From ChEMBL document CHEMBL5120789, “Aspulvins A-H, Aspulvinone Analogues with SARS-CoV-2 Mpro Inhibitory and Anti-inflammatory Activities from an Endophytic Cladosporium sp” (J Nat Prod, 2022)
